Target: T1, SIRT1 (Homo sapiens, UniProt Q96EB6)
T1 sequence (Q96EB6 1-747): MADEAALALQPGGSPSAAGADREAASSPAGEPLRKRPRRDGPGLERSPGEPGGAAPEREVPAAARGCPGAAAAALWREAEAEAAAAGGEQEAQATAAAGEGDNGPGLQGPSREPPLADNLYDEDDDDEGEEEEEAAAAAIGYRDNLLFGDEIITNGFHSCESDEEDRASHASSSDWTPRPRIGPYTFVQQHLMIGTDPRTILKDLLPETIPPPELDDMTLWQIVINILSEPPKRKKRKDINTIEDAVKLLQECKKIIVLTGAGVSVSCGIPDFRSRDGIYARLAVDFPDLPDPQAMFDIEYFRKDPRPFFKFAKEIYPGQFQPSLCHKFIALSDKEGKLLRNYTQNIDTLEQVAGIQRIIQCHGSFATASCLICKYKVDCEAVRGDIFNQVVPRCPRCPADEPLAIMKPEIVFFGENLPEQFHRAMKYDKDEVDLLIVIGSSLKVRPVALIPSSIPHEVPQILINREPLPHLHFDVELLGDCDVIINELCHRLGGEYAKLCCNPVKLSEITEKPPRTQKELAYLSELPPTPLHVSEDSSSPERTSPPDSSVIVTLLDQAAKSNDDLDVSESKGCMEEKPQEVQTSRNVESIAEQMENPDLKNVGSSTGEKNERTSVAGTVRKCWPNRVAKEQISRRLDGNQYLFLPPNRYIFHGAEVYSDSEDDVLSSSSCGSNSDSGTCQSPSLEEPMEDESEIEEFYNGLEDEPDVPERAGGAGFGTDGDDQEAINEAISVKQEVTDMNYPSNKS
Experiment: Trp mass spectrometry assay of SIRT1 activation (deacetylation of Ac-R-H-K-K(Ac)-W-NH2 peptide, OAADPR formation)
Type: biochemical
Settings: Trp peptide 0.5 μM, 120 μM βNAD+, 10 nM SIRT1, 25 min, 25° C.; for Emax: 25 min, read-out: TRP MAX RESP (percent maximum fold activation relative to control = 100%)
Text: Mass spectrometry based assays were used to identify modulators of SIRT1 activity. The TAMRA based assay utilized a peptide having 20 amino acid residues as follows: Ac-EE-K(biotin)-[…](Ac)NleSTEG-K(5TMR)-EE-NH2 (SEQ ID NO: 1), wherein K(Ac) is an acetylated lysine residue and Nle is a norleucine. The peptide was labeled with the fluorophore 5TMR (excitation 540 nm/emission 580 nm) at the C-terminus. The sequence of the peptide substrate was based on p53 with several modifications. In addition, the methionine residue naturally present in the sequence was replaced with the norleucine because the methionine may be susceptible to oxidation during synthesis and purification. The Trp based assay utilized a peptide having an amino acid residues as follows: Ac-R-H-K-K(Ac)-W-NH2 (SEQ ID NO: 2).
The Trp mass spectrometry assay was conducted as follows. 0.5 μM peptide substrate and 120 μM βNAD^+ were incubated with 10 nM SIRT1 for 25 minutes at 25° C. in a reaction buffer (50 mM HEPES pH 7.5, […], 1 mM DTT, 0.05% BSA). The SIRT1 protein was obtained by cloning the SirT1 gene into a T7-promoter containing vector, which was then expressed in BL21(DE3) bacterial cells and purified as described in further detail below. Test compound was added at varying concentrations to this reaction mixture and the resulting reactions were monitored. After the 25 minute incubation with SIRT1, 10 μL of 10% formic acid was added to stop the reaction. The resulting reactions were sealed and frozen for later mass spec analysis. The relative SIRT1 activity was then determined by measuring the amount of O-acetyl-ADP-ribose (OAADPR) formed (or, alternatively, the amount of deacetylated Trp peptide generated) by the NAD-dependent sirtuin deacetylation reaction in the presence of varying concentrations of the test compound versus control reactions lacking the test compound. The degree to which the test agent activated deacetylation by SIRT1 was expressed as EC1.5 (i.e., the concentration of compound required to increase SIRT1 activity by 50% over the control lacking test compound), and Percent Maximum Activation (i.e., the maximum activity relative to control (100%) obtained for the test compound).
A control for inhibition of sirtuin activity was conducted by adding 1 μL of 500 mM nicotinamide as a negative control at the start of the reaction (e.g., permits determination of maximum sirtuin inhibition). A control for activation of sirtuin activity was conducted using 10 nM of sirtuin protein, with 1 μL of DMSO in place of compound, to determine the amount of deacetylation of the substrate at a given time point within the linear range of the assay. This time point was the same as that used for test compounds and, within the linear range, the endpoint represents a change in velocity.
For the above assay, SIRT1 protein was expressed and purified as follows. The SirT1 gene was cloned into a T7-promoter containing vector and transformed into BL21(DE3). The protein was expressed by induction with 1 mM IPTG as an N-terminal His-tag fusion protein at 18° C. overnight and harvested at 30,000×g. Cells were lysed with lysozyme in lysis buffer (50 mM Tris-HCl, 2 mM Tris[2-carboxyethyl] phosphine (TCEP), 10 μM ZnCl2, 200 mM NaCl) and further treated with sonication for 10 min for complete lysis. The protein was purified over a Ni-NTA column (Amersham) and fractions containing pure protein were pooled, concentrated and run over a sizing column (Sephadex S200 26/60 global). The peak containing soluble protein was collected and run on an Ion-exchange column (MonoQ). Gradient elution (200 mM-500 mM NaCl) yielded pure protein. This protein was concentrated and dialyzed against dialysis buffer (20 mM Tris-HCl, 2 mM TCEP) overnight. The protein was aliquoted and frozen at −80° C. until further use.
Sirtuin-modulating compounds of Formula (I) that activated SIRT1 were identified using the assay described above and are shown below in Table 1. […]

Compound | Emax | TRP Activity (EC1.5, concentration of compound required to increase SIRT1 activity by 50% over control)
O=C(Nc1nccc(OC[C@H](O)CO)n1)N1c2nc(-c3cccc(C(F)(F)F)c3)c(Cl)cc2N2CCC[C@H]1C2 [Example 78, (9S)-3-chloro-N-(4-((R)-2,3-dihydroxypropoxy)pyrimidin-2-yl)-2-(3-(trifluoromethyl)phenyl)-8,9-dihydro-6H-5,9-methanopyrido[2,3-b][1,4]diazocine-10(7H)-carboxamide] | ≥ 150% | A (EC1.5<1 μM)
O=C(Nc1cc(OC[C@H](O)CO)ccn1)N1c2nc(-c3cccc(C(F)(F)F)c3)c(Cl)cc2N2CCC[C@H]1C2 [Example 82, (9S)-3-chloro-N-(4-((R)-2,3-dihydroxypropoxy)pyridin-2-yl)-2-(3-(trifluoromethyl)phenyl)-8,9-dihydro-6H-5,9-methanopyrido[2,3-b][1,4]diazocine-10(7H)-carboxamide] | ≥ 150% | A (EC1.5<1 μM)
Cc1cc(-c2ccc3c(n2)N(C(=O)Nc2cnccn2)[C@H]2CCCN3C2)ccn1 [Example 13, (9S)-2-(2-methylpyridin-4-yl)-N-(pyrazin-2-yl)-8,9-dihydro-6H-5,9-methanopyrido[2,3-b] [1,4] diazocine-10(7H)-carboxamide] | ≥ 150% | A (EC1.5<1 μM)
Cc1cc(-c2ccc3c(n2)N(C(=O)Nc2cncnc2)[C@H]2CCCN3C2)ccn1 [Example 16, (9S)-2-(2-methylpyridin-4-yl)-N-(pyrimidin-5-yl)-8,9-dihydro-6H-5,9-methanopyrido[2,3-b][1,4]diazocine-10(7H)-carboxamide] | ≥ 150% | B (EC1.5 1-25 μM)
Cc1cc(-c2ccc3c(n2)N(C(=O)Nc2cnn(C)c2)[C@H]2CCCN3C2)ccn1 [Example 26, (9S)-N-(1-methyl-1H-pyrazol-4-yl)-2-(2-methylpyridin-4-yl)-8,9-dihydro-6H-5,9-methanopyrido[2,3-b][1,4]diazocine-10(7H)-carboxamide] | ≥ 150% | B (EC1.5 1-25 μM)

The next lines start with the values.

Emax | TRP Activity (EC1.5, concentration of compound required to increase SIRT1 activity by 50% over control) | Compound
≥ 150% | A (EC1.5<1 μM) | O=C(Nc1ccccn1)N1c2nc(N3CCCC(C(F)(F)F)C3)ccc2N2CCC[C@H]1C2 (single isomer, unassigned) [Example 11]
≥ 150% | A (EC1.5<1 μM) | C[C@@H](NC(=O)c1ccc2c(n1)N(C(=O)Nc1ccon1)[C@H]1CCCN2C1)C(F)(F)F [Example 40, (9S)-N10-(isoxazol-3-yl)-N2-((R)-1,1,1-trifluoropropan-2-yl)-8,9-dihydro-6H-5,9-methanopyrido[2,3-b][1,4]diazocine-2,10(7H)-dicarboxamide]
≥ 150% | – | C[C@@H](NC(=O)c1ccc2c(n1)N(C(=O)Nc1ccc(OC[C@H](O)CO)nn1)[C@H]1CCCN2C1)C(F)(F)F [Example 55, (9S)-N10-(6-((R)-2,3-dihydroxypropoxy)pyridazin-3-yl)-N2-((R)-1,1,1-trifluoropropan-2-yl)-8,9-dihydro-6H-5,9-methanopyrido[2,3-b][1,4]diazocine-2,10(7H)-dicarboxamide]
≤ 150% | – | O=C(Nc1ccc(F)cn1)c1cc2c(nc1N1CCCC(C(F)(F)F)C1)N[C@H]1CCCN2C1 (single isomer, unassigned) [Example 58]
≥ 150% | A (EC1.5<1 μM) | O=C(Nc1ccc(OC[C@@H](O)CO)cn1)N1c2nc(-c3cccc(C(F)(F)F)c3)c(Cl)cc2N2CCC[C@H]1C2 [Example 74, (9S)-3-chloro-N-(5-((S)-2,3-dihydroxypropoxy)pyridin-2-yl)-2-(3-(trifluoromethyl)phenyl)-8,9-dihydro-6H-5,9-methanopyrido[2,3-b][1,4]diazocine-10(7H)-carboxamide]

Reference: patent publication US20190048016A1, “SUBSTITUTED BRIDGED UREA ANALOGS AS SIRTUIN MODULATORS” (GlaxoSmithKline Intellectual Property(No.2)Limited, priority 2014, published 2019)
